Results taken from patent US20210198277A1, “AMINE-SUBSTITUTED ARYL OR HETEROARYL COMPOUNDS” (Epizyme, Inc., priority 2016, published 2021).

Legend:
human EHMT2 913-1193 = molecular target: T1, human EHMT2 913-1193 (Homo sapiens, UniProt Q96KQ7); assay: EHMT2 enzyme assay on histone peptide substrate (EHMT2 PEP); assay type: biochemical; conditions: Table II; read-out: EHMT2 PEP (IC50 μM)
T1 construct: recombinant purified human EHMT2 913-1193, Viva; purchased Viva
T1 sequence (Q96KQ7 913-1193): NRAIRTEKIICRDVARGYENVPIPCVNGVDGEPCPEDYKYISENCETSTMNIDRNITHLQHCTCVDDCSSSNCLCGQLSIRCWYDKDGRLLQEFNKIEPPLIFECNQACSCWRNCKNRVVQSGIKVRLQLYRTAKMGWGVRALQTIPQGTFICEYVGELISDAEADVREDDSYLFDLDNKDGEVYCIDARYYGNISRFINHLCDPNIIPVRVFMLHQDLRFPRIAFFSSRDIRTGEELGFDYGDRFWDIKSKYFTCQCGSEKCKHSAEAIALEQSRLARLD
Method in brief: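 Radiometric methyltransferase read-out: ^3H-methyl transfer from ^3H-SAM onto biotinylated histone peptide, captured on streptavidin Flashplates after 60 min reaction at room temperature. Enzyme 0.031 nM, preincubated 30 min with inhibitor; buffer 20 mM Bicine pH 7.5 with 1 mM TCEP; top compound concentration 50 μM final, 2% DMSO.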

EHMT1 = molecular target: T2, EHMT1 (Homo sapiens, UniProt Q9H9B1); assay: EHMT1 enzyme assay on peptide substrate (EHMT1 PEP); assay type: biochemical; conditions: Table II; read-out: EHMT1 PEP (IC50 μM)
T2 sequence (Q9H9B1 1-1298): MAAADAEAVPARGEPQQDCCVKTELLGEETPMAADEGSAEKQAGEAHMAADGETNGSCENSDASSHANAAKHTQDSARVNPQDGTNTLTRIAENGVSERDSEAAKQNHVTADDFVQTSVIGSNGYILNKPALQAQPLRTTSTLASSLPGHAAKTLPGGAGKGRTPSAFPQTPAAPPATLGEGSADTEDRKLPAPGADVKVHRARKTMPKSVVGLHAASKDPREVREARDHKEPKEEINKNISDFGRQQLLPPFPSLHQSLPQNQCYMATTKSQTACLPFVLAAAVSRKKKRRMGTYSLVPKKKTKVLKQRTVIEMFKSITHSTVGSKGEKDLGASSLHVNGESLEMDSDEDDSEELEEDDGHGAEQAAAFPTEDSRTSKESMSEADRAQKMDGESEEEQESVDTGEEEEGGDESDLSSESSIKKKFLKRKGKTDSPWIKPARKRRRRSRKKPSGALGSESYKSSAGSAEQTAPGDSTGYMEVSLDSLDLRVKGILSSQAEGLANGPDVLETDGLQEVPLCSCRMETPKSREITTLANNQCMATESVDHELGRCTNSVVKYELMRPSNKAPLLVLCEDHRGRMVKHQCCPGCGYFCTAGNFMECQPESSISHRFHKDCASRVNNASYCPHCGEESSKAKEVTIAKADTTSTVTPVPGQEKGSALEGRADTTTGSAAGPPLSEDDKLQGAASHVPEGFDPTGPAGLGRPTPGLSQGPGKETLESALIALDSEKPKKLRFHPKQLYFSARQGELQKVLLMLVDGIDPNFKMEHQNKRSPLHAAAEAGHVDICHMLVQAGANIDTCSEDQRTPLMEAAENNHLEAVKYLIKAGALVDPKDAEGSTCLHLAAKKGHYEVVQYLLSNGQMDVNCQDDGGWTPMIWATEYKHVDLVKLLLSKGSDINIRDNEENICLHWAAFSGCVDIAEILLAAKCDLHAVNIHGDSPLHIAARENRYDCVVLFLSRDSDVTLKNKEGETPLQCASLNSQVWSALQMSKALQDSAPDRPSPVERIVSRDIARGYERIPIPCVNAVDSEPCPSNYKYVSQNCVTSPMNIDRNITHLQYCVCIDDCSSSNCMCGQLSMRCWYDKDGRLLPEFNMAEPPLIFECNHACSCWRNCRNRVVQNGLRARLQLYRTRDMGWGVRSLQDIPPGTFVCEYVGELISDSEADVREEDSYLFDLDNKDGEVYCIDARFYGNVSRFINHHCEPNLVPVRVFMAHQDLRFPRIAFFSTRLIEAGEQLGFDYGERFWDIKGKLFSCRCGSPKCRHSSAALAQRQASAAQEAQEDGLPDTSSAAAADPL

Structure (SMILES)	IC50 (human EHMT2 913-1193) [µM]	IC50 (EHMT1) [µM]
COc1ccc(Nc2cc(NCC3CCN(C(C)=O)CC3)cnn2)cc1OCCCN1CCCC1 [Compound 185]	1 to 10	1 to 10
CNc1nc(Nc2ccc(OC)c(OCCCN3CCCC3)c2)ncc1F [Compound 187]	1 to 10	1 to 10
COc1ccc(Nc2nccc(NCC3CCN(C(C)=O)CC3)n2)cc1OC(C)CCN1CCCC1 (stereo not shown) [Compound 195]	1 to 10	1 to 10
CCOC(=O)N1CCC(CNc2ccnc(Nc3ccc(OC)c(OCCCN4CCCC4)c3)n2)CC1 [Compound 203]	0.1 to 1	0.1 to 1
COc1ccc(Nc2nccc(NCC3CCOCC3)n2)cc1OCCN1CCOCC1 [Compound 204]	1 to 10	1 to 10

Other lines, results leading:

IC50 (human EHMT2 913-1193) [µM]	IC50 (EHMT1) [µM]	Structure (SMILES)
0.1 to 1	0.1 to 1	CNc1cc(C)nc(Nc2ccc(OC)c(OCCCN3CC[C@@H](F)C3)c2)n1 [Compound 186]
0.1 to 1	0.1 to 1	CNc1cc(Nc2ccc(OC)c(OCCCN3CCCC3)c2)cnn1 [Compound 188]
< 0.1	< 0.1	COc1ccc(Nc2nccc(NCc3ccc4nccn4c3)n2)cc1OCCCN1CCCC1 [Compound 191]
0.1 to 1	0.1 to 1	COc1ccc(Nc2nccc(NC3CN(C(C)=O)C3)n2)cc1OCCCN1CCCC1 [Compound 192]
0.1 to 1	0.1 to 1	COc1ccc(Nc2nccc(NCCn3cccn3)n2)cc1OCCCN1CCCC1 [Compound 193]
0.1 to 1	0.1 to 1	COc1ccc(Nc2nccc(NCC3CCN(S(C)(=O)=O)CC3)n2)cc1OCCCN1CCCC1 [Compound 199]
